Where two headings read alike, the source gives them in different places.
Key:
[1] = target: T1, 5-HT2 receptors (isolated rabbit aorta) (Oryctolagus cuniculus, UniProt G1SYA7); test: Antagonism of serotonin-induced contraction of isolated rabbit aorta
T1 construct: Four rings formed from rabbit aorta were joined together to form a chain; from tissue; host or cells: isolated rabbit aorta rings
Procedure: The antagonist activity of some of the compounds of the invention on the contractile activity of seratonin on isolated rabbit aorta, effected principally by way of the 5-HT2 receptors, is reported here by way of example. The method of Feniuk et al [Br. J. Pharmacol. (1985), 86, 697-704] was used, with slight modifications. Four rings formed from rabbit aorta were joined together to form a chain; the preparation was placed in an isolated organ bath in the presence of Krebs at 37° C. and attached to an isometric transducer, a tension of 2 g being applied and oxygenation was carried out continuously with O2 --CO2 (95-5 v/v). A seratonin concentration(0.3 μM) was used that was capable of causing sub-maximal contraction of the preparation. […] The results obtained in this way are given in Table 4 below which, for several of the compounds of the invention gives IC50 values calculated by the regression method on a set of at least 2 experiments at 5 different concentrations for each of the compounds examined, these being compared with values obtained for several reference compounds.

[2] = system: spontaneously hypertensive (SHR) rat; test: Anti-hypertensive activity in the spontaneously hypertensive (SHR) rat (oral); type: in vivo; details: for ED20: Rattus norvegicus, 2 h, 0-120 min, NC: not calculable, read-out: Systolic pressure ED20 (0-120 min)
Source text: Animals having a mean basal systolic pressure of not less than 180 mmHg were used.

[3] = target: alpha1A + alpha1C adrenergic receptor (human prostate); test: [3H]-prazosin binding in human prostate; details: alpha1A + alpha1C subtype, pH 7.5, 30 min, 25° C., read-out: Inhibition of the binding of [3H]-prazosin IC50
[4] = target: T2, alpha1A adrenergic receptor (rat GSM) (Rattus norvegicus, UniProt P43140); test: [3H]-prazosin binding in rat submaxillary glands (GSM); details: alpha1A subtype, pH 7.4, 45 min, 25° C., read-out: Inhibition of the binding of [3H]-prazosin IC50
T2 sequence (P43140 1-466): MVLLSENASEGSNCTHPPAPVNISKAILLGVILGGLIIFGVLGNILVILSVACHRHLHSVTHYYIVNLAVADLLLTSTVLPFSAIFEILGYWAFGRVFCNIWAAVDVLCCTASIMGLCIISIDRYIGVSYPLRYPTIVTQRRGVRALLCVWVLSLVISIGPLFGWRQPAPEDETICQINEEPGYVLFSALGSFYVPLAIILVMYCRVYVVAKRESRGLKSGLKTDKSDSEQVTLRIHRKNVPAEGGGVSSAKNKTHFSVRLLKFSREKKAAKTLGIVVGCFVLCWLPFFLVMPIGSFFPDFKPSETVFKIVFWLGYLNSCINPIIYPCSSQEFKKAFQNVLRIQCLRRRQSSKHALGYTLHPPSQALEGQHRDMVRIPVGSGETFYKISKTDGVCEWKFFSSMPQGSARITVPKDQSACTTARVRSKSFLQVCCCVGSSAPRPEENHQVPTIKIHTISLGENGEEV

[5] = target: T3, alpha1B adrenergic receptor (rat liver) (Rattus norvegicus, UniProt P15823); test: [3H]-prazosin binding in rat liver
T3 sequence (P15823 1-515): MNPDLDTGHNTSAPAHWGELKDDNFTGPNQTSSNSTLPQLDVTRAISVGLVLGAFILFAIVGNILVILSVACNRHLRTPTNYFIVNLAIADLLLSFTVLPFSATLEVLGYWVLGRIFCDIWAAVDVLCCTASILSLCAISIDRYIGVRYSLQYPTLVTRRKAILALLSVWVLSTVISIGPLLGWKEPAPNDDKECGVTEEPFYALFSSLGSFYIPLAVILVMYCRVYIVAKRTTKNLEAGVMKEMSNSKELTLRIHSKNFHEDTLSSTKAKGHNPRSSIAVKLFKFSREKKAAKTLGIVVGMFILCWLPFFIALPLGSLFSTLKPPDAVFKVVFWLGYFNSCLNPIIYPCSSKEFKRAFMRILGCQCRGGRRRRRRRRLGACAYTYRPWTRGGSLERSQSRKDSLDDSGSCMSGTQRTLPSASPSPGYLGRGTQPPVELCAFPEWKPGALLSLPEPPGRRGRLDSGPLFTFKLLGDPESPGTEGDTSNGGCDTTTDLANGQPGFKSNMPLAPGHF

[6] = system: anaesthetised normotensive rat; test: Hypotensive activity in the anaesthetised normotensive rat (IV); type: in vivo; details: for ED30: Rattus norvegicus, read-out: Reduction in mean arterial pressure ED30
Procedure: In order to evaluate the in vivo activity, some of the compounds of the invention were administered (IV) in bolus form to the normotensive rat anaesthetised with urethane plus ketamine. The compounds were administered in at least three doses in experiments performed in duplicate so as to enable the calculation of ED30 values, that is, the dose in mg/kg that reduces the mean basal arterial pressure by 30%. The compounds of the invention, and several reference standards, were dissolved in dilute hydrochloric acid at a physiologically acceptable pH, and physiological solution was administered in a volume of 3 ml/kg. Evaluations were made at two time periods, that is, the intervals 0-30 min and 30-60 min after administration.

[7] = isolated rabbit aorta, 37° C., compound 10 min before agonist, limits (p < 0.05)
[8] = 0.5 h, IV bolus, interval 0-30 min
[9] = 1 h, IV bolus, interval 30-60 min
[10] = read-out: Inhibitory effect (IC50) on the contraction caused by 0.3 μM serotonin, isolated rabbit aorta, 37° C., compound 10 min before agonist, limits (p < 0.05)
[11] = read-out: Inhibition of the binding of [3H]-prazosin IC50, rat liver, alpha1B subtype

T1 sequence (G1SYA7 1-469): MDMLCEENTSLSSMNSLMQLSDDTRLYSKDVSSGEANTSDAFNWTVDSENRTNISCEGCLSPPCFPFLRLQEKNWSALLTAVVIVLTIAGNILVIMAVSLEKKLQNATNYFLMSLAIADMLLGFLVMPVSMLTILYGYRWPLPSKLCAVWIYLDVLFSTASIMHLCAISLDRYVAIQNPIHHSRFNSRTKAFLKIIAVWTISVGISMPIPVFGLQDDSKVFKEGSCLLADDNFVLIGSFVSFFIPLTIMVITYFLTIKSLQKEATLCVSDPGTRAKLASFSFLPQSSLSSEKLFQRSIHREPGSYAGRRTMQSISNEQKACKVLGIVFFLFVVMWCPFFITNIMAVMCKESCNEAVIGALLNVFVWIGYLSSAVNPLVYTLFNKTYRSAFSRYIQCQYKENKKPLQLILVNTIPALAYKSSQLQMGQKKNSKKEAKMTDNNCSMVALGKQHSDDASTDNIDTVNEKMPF

| Compound | IC50 [1, 7] [nM] | Cardiac frequency, max effect at 3 mg/kg ([2]; 3 mg/kg) | Systolic pressure, max effect at 3 mg/kg ([2]; 3 mg/kg) [% vs basal] | IC50 [3] [nM] | IC50 [4] [nM] | IC50 [5] [nM] | ED30 [6, 8] [mg/kg] | ED30 [6, 9] [mg/kg] | IC50 [1, 10] [nM] | IC50 [5, 11] [nM] | ED20 [2] [mg/kg] | IC50 ([1]; rabbit aorta, 0.3 μM serotonin, conversion of 3.1 μg/ml, read-out: IC50, 5-HT2 antagonist activity) [nM] | times less than ketanserine (IC50) ([1]; rabbit aorta, versus ketanserine IC50 0.09 μg/ml) | anti-hypertensive action (in words) [2] | 5-HT2-antagonist activity (in words) ([1]; rabbit aorta) | increase in cardiac frequency over the basal frequency ([2]; 3 mg/kg, significant) | reduction of arterial pressure ([2]; 3 mg/kg) [%] | hypotensive activity compared with prazosin/compounds (in words) ([6]; IV bolus) | ED30 ([6]; iv, 0.5 h) [mg/kg] | ED30 ([6]; iv, 1 h) [mg/kg] |
| --- | --- | --- | --- | --- | --- | --- | --- | --- | --- | --- | --- | --- | --- | --- | --- | --- | --- | --- | --- | --- |
| COc1cc2nc(N3CCC(c4ccccc4)CC3)nc(N)c2cc1OC [Compound 1] | 16500 | -0.8 % vs basal | -7.5 | 2 | 6.1 | 13 | 0.19 | 0.31 | – | – | – | – | – | – | – | – | – | – | – | – |
| COc1cc2nc(N3CCC(c4ccccc4OC)CC3)nc(N)c2cc1OC [Compound 2] | 37300 | +2.1 % vs basal | -6.4 | 7.8 | 18.8 | 7.7 | 0.5 | 0.55 | – | – | – | – | – | – | – | – | – | – | – | – |
| CCOc1ccccc1C1CCN(c2nc(N)c3cc(OC)c(OC)cc3n2)CC1 [Compound 3] | – | – | – | 10.8 | 10.7 | – | 0.32 | 0.35 | 73400 | 14 | – | – | – | – | – | – | – | – | – | – |
| COc1cc2nc(N3CCC(c4ccco4)CC3)nc(N)c2cc1OC [Compound 4] | – | +0.6 % vs basal | -15.5 | 3.8 | 3.1 | – | 0.08 | 0.1 | 32700 | 1.7 | 13.1 | – | – | – | – | – | – | – | – | – |
| COc1cc2nc(N3CCC(c4ccc(C)o4)CC3)nc(N)c2cc1OC [Compound 5] | 8410 | -0.2 % vs basal | -22.1 | 1.7 | 3.5 | 2.1 | 0.03 | 0.03 | – | – | 2 | 7600 | approximately 30 times | about as powerful as prazosin | – | – | – | – | – | – |
| COc1cc2nc(N3CCC(c4cccs4)CC3)nc(N)c2cc1OC [Compound 6] | 88300 | +2.7 % vs basal | -8.4 | 4.5 | 4.1 | 6 | 0.06 | 0.08 | – | – | – | – | – | – | – | – | – | – | – | – |
| COc1cc2nc(N3CCC(c4cc5ccccc5o4)CC3)nc(N)c2cc1OC [Compound 8] | 16600 | -5.2 % vs basal | -20.2 | 20 | 18.4 | 5.2 | 0.07 | 0.09 | – | – | 2.6 | – | – | about as powerful as prazosin | – | – | – | – | – | – |
| COc1cc2nc(N3CCN(C(=O)c4ccco4)CC3)nc(N)c2cc1OC [Prazosin, reference compound] | > 130000 | +9.7 % vs basal | -20.0 | – | – | – | 0.02 | 0.05 | – | – | 2.8 | – | – | – | inactive until higher doses (50 μg/ml) | approximately 10% | – | – | – | – |
| COc1ccc(CCN(C)CCCC(C#N)(c2ccc(OC)c(OC)c2)C(C)C)cc1OC (stereo not drawn) [Verapamil, reference compound] | – | +2.8 % vs basal | -9.0 | – | – | – | – | – | – | – | – | – | – | – | – | – | ≤ 9 | less active | 0.63 | 1.06 |

From patent US5985885A, “Quinazoline-4-amino-2-(piperidine-1-yl-4-substituted) derivatives having antihypertensive activity, a method for their preparation and their pharmaceutical use” (priority 1996, dated 1999)
